“Also recorded” adds a separate entry of the source.
Assays:
[1] = test system: Acinetobacter baumannii ATCC 196062; assay: Diffusion agar plate method, zone of inhibition; type: cell-based; conditions: 62.5 μg/ml to 1000 μg/ml; FIG. 5, FIG. 10
Procedure: (§1) Cell culture: Cultures of each bacterial strain were prepared by inoculating on Muller Hinton Agar (MHA) medium. After overnight incubation at 37° C., the density of the bacterial cells was compared to the McFarland turbidity standard (0.5).
(§2) Plates were swabbed with McFarland 0.5 inoculum of each test bacteria. […] serial dilutions of the peptides were prepared and 20 μl of compound were dropped onto the MHA. Antibiotic disc served as a positive control and vehicle alone served as the negative control. Plates were incubated for 16-18 hours and assessed for antibacterial activity. Zones of inhibition were measured for each TA dilution and compared with the controls.

[2] = test system: Streptococcus pneumoniae DCC1335; assay: Diffusion agar plate method, zone of inhibition; type: cell-based; conditions: 62.5 μg/ml to 1000 μg/ml; FIG. 10
Procedure: as §1, §2

[3] = test system: Normal human dermal fibroblasts (HNDF); assay: Myofibroblast transition assay (MFT), aSMA immunofluorescence; type: cell-based; conditions: for Myofibroblast transition (MFT), aSMA/cell, % change relative to control / MFT, Representative value from experiments (% change relative to control): N = 3; for Myofibroblast transition (MFT), aSMA/cell, % change relative to control: TGF-Beta induced HNDF, control of no peptide; for MFT, Representative value from experiments (% change relative to control): most effective significant concentration of 10, 100, 1000 ng/ml
Description: The myofibroblast transition (MFT) assay determines the effect of the peptide on inhibiting the transition of fibroblasts to myofibroblasts. The extracellular matrix produced by myofibroblasts may be produced in excess and may not be remodeled during tissue healing, leaving behind the fibrous connective tissue that forms a scar. Thus, the ability to regulate the degree of MFT may enable control of scarring. To determine if the peptides provided herein affect MFT, the following assay was performed.
Normal human dermal fibroblasts (HNDF) were cultured in high glucose Dulbecco's modified eagle medium (DMEM) supplemented with 10% fetal bovine serum (FBS) and 5 ml of 10,000 units of penicillin/streptomycin. Cells were cultured on 10 cm plates with media changes every 2 days. Cells were passaged in 0.25% Trypsin/EDTA after achieving 80% confluency.
To induce myofibroblast transition (MFT), normal human dermal fibroblasts (HNDFs) were split from 1-10 cm plates to 5-96 well plates. Cells were then allowed to grow the next day. The following day, cells were serum starved (1% FBS in DMEM) for 4 hours prior to adding 20 ng/ml of TGF-Beta to all wells of the plate. 1000 μM of Vactosertib (TEW-7197/EW-7197) was added to serve as a positive control and different concentrations of peptides were added to serve as the test articles. The cells were then exposed to the compounds for 5 more days before fixation.
The cells were fixed in paraformaldehyde (PFA) for 10-15 minutes, then washed 2× in PBS. Cells were blocked in 4% BSA for 30 minutes at 23° C. Cells were stained with the primary alpha-smooth muscle actin (aSMA) antibody (1:100) for 1 hour at 23° C. or left out at 4° C. overnight. Cells were rinsed 2× with BSA and then the secondary antibody mix was added: Alexa 488 (1:500) and DAPI (1:1000) for 30 min at 23° C. or 1 hr at 4° C. The plates were covered during staining, then rinsed 2× in BSA and stored in PBS.
Plates were imaged using the Celigo Imaging Cytometer by Nexcelcom. The ratio of fluorescent expression of alpha-smooth muscle actin (aSMA) and DAPI were quantified to determine the amount of aSMA/cell.
The change (normalized to the control) in MFT for each concentration is shown along with the p value for all experiments relative to the control of no peptide.

skin after dermabrasion [4] = assay: Clinical study, transepidermal water loss (TEWL, Vapometer) after dermabrasion; type: in vivo, human; conditions: 8, 24, 48 hours, vehicle cream base
Procedure: (§3) To determine the effects of exemplary peptides p1-p9 on tissue healing, a clinical study was performed that assessed transepidermal water loss (TEWL) and skin smoothness after dermabrasion.
(§4) This exemplary vehicle cream has a pH of 5.0, no odor and is white in color.
After 8 hours (T8h) of first product application, the subjects returned to the Institute, acclimated for 15 minutes and new Vapometer® to measure TEWL and Visioscan® VC 20Plus to measure skin smoothness was performed. After 1 (T1d), 2 (T2d) and 3 (T3d) days the subjects returned to the Institute, acclimated for 15 minutes and new measurements were performed. At time-points T1d and T2d new product application was performed by the technician on each test site. A total of 49 study subjects were included in the study and a total of 41 completed the study. […]
The TEWL measurements were performed by using the Vapometer® device through a measurement probe. The readings were taken by applying the probe to the test sites, by resting it against the skin.
The measurements principle is diffusion, which indicates the mass of water per cm^2 that is transported in a given period of time, that is, the reading indicates the degree of water evaporation on the skin surface based on the sensitivity of hygro-sensors. The scale used is g/h/m^2, in which greater values of reading indicate higher evaporation. […]

skin after dermabrasion [5] = assay: Clinical study, Visioscan skin smoothness after dermabrasion; type: in vivo, human; conditions: 8, 24, 48 and 72 hours after dermabrasion; vehicle cream base
Procedure: as §3, §4
After 8 hours (T8h) of first product application, the subjects returned to the Institute, acclimated for 15 minutes and new Vapometer® to measure TEWL and Visioscan® VC 20Plus to measure skin smoothness was performed. After 1 (T1d), 2 (T2d) and 3 (T3d) days the subjects returned to the Institute, acclimated for 15 minutes and new measurements were performed. At time-points T1d and T2d new product application was performed by the technician on each test site. A total of 49 study subjects were included in the study and a total of 41 completed the study. The study included post-menopausal female subjects, aged between 50 and 65 years old (mean age: 59 years old), presenting Fitzpatrick Skin Types II-V.
Skin texture images were performed using the Visioscan® VC 20Plus, which allows taking pictures of the skin through magnifying lenses. The images enable a view of the skin topography, texture, dryness, desquamation, blemishes, pores, and cuticles.

skin post-dermabrasion = assay: Clinical study, erythema (Chromameter a* value) post-dermabrasion; type: in vivo, human; conditions: 4 hours and 12 hours after application
Procedure: To determine the effects of the peptides on skin redness, the peptides P2, P3, and the combination of P2+P3 were tested at different concentration levels and subject's skin redness (erythema) was measured post-dermabrasion and 2, 4, 8, 12, 24, 48 and 72 hours post-application. The subjects were 30 post-menopausal female subjects, aged 50-65 years or younger, if post-menopausal. Enrolled subjects were to have Fitzpatrick Skin Types II-V. At baseline (post-dermabrasion) and 2, 4, 8, 12, 24, 48 and 72 hours post-application, skin redness was measured on 4 skin sites using the Chromameter® (Konica Minolta, Ramsey NJ). In order to determine any changes in skin redness, the a* value was analyzed. The a* value measures redness/erythema in the skin. A decrease in the a* value corresponded to a whitening/improvement (less red) effect and an increase in the a*value represented a darkening/worsening (redder) effect

Keratinocytes = assay: Keratinocyte scratch assay; type: cell-based, human; parameters: Keratinocyte scratch assay (% change relative to control): unit not given here
Procedure: HNDF fibroblasts were grown as described above. HNDFs were split from 1-10 cm plate to 4-24 well plates. Cells were allowed to grow until 90-100% confluent. Cells were serum starved (in 1% FBS in DMEM) for 4 hours before scratching using the Biotek Autoscratch machine. Cells were washed with PBS and the media was replaced with starvation media as a negative control, normal media (10% FBS) as positive control, and starvation media+compound as the test article. Cells were imaged at T=0 to serve as a baseline and fixed at T=48 hours. The images at 48 hours were imaged using phase contrast microscopy or with wheat germ agglutinin (WGA) stain.
Scratch assays were also performed on keratinocytes. Keratinocytes were grown to confluency and scratch assays were performed and measured as above with fibroblasts.

[6] = test system: interleukin-8 (IL-8) production in human fibroblasts; assay: Fibroblast inflammation assay (LPS-induced IL-8, ELISA); type: cell-based; conditions: LPS induction
Procedure: Inflammation in fibroblasts leads to the production of the chemokine interleukin-8 (IL-8), which stimulates fibroblast to myofibroblast transition (MFT) thereby enhancing scar formation. To determine if the peptides of the instant disclosure affect fibroblast response to inflammation and fibroblast IL-8 production, the following assays were performed.
Human fibroblasts were grown as described above. HNDFs were plated in 96 well plates at a concentration of 1×10^4 cells/well and allowed to incubate overnight. The next day cells were dosed with 5 μg/mL of LPS with and without the peptides. The negative control contained only media and vehicle, while the positive control was dosed with lipopolysaccharides (LPS) and dexamethasone (50 μg/ml). After 24 hours, the media was removed to measure IL6 and IL8 cytokine levels using ELISA. A standard curve was plotted in excel. All data were blank subtracted and then fit onto the curve to calculate cytokine concentrations.

HNDF fibroblasts = assay: Fibroblast cell proliferation (EDU); type: cell-based, human; conditions: N = 3; for Fibroblast proliferation, Representative value from experiments (% change relative to control): most effective significant concentration
Procedure: Fibroblast proliferation is an important component of tissue regeneration. To determine if the peptides of the disclosure affect fibroblast proliferation, HNDFs were grown as described above, and split from 1-10 cm plates to 4-24 well plates. After allowing the cells to grow overnight, normal media was replaced with starvation media (1% FBS in DMEM). 10 ng/ml of fibroblast growth factor (FGF) served as a positive control, untreated cells (starvation media only) served as a negative control, and different concentrations of the peptides as test articles. The cells were then exposed to the peptides for a day before adding 5-Ethynyl-2′-deoxyuridine (EDU) EDU signal marker for 2-4 hours to assess DNA synthesis and cell proliferation.
The fibroblasts were fixed in PFA for 10-15 minutes, then washed 2× in 4% BSA. 0.1% Triton X-100 in PBS was added for 20 min at 23° C. to permeabilize the cells. The cells were washed 2× in 4% BSA and the following reaction mixture was added: 0.25% of 488 iFlour azide, 4% CuSO, 10% Sodium Ascorbate in PBS. The cells were incubated at 23° C. for 30 minutes. The cells were washed in BSA 1× and in PBS 1×. The cells were also stained for DAPI for 30 minutes at 23° C. The cells were washed 2× in PBS and maintained in PBS.
Plates were imaged using the Celigo Imaging Cytometer by Nexcelcom. The amount of fluorescent expression of EDU and DAPI were quantified to determine the amount of EDU/field (and thus the percentage of fibroblast cells dividing).
Because the concentration required to induce an effect with each peptide was not known, each peptide was tested in 3 concentrations: 10 ng/ml, 100 ng/ml, and 1000 ng/ml as shown in Table 4A and Table 4B.

Substance: GFWDIL WHIPHTIKG (GFWDILWHIPHTIKG) [MBdol15]
- agar zone of inhibition, inhibiting bacterial growth [1]: effective
- agar zone of inhibition, inhibiting bacterial growth [2]: effective

Substance: SKPAKAPE [Peptide P3]
- Myofibroblast transition (MFT), aSMA/cell, % change relative to control ([3]; 1000 ng/ml peptide): −0.4914%
- MFT, Representative value from experiments (% change relative to control) [3]: −0.4914 p = (0.006) %
- aSMA decrease relative to the control (fluorescence, FIG. 3) ([3]; negative control of no peptide): 49%
- TEWL, skin barrier restoration (skin after dermabrasion [4]): most promising TEWL assay results; also recorded: most promising results in skin barrier restoration
- skin smoothness (Visioscan) (skin after dermabrasion [5]): visible; also recorded: most promising skin smoothness results
- skin redness (erythema), a* value (skin post-dermabrasion): significantly improved erythema; also recorded: improve skin redness

Substance: TFMSHLFCCVQKRCDCSF [MBdol23]
- agar zone of inhibition, inhibiting bacterial growth [1]: effective
- agar zone of inhibition, inhibiting bacterial growth [2]: effective

Substance: QFCGPCGLRKRLRKFRNK [MBb11]
- increase of keratinocyte migration (Keratinocytes): at least 39%
- rate of keratinocyte migration (Keratinocytes): significantly increased
- Keratinocyte scratch assay (% change relative to control) (Keratinocytes; 1000 ng/ml, N = 8): 0.3892
- Myofibroblast transition (MFT), aSMA/cell, % change relative to control ([3]; 100 ng/ml peptide): −0.3537%
- Myofibroblast transition (MFT), aSMA/cell, % change relative to control ([3]; 1000 ng/ml peptide): −0.419%
- MFT, Representative value from experiments (% change relative to control) [3]: −0.419 p = (0.025) %
- effect on IL-8 inhibition in fibroblasts relative to the negative control [6]: low but significant effect

Substance: QRLLEAQAAT [Peptide P2]
- TEWL, skin barrier restoration (skin after dermabrasion [4]): most promising TEWL assay results; also recorded: most promising results in skin barrier restoration
- skin smoothness (Visioscan) (skin after dermabrasion [5]): visible; also recorded: most promising skin smoothness results
- skin redness (erythema), a* value (skin post-dermabrasion): significantly improved erythema; also recorded: improve skin redness

Substance: ERDLK [MBb14]
- Fibroblast proliferation (% change relative to control) (HNDF fibroblasts; 10 ng/ml peptide): 1.094%
- Fibroblast proliferation, Representative value from experiments (% change relative to control) (HNDF fibroblasts): 1.094 p = (0.029) %

Substance: PKPQP [MBb28]
- Myofibroblast transition (MFT), aSMA/cell, % change relative to control ([3]; 100 ng/ml peptide): −0.243%
- Myofibroblast transition (MFT), aSMA/cell, % change relative to control ([3]; 1000 ng/ml peptide): −0.1881%
- MFT, Representative value from experiments (% change relative to control) [3]: −0.243 p = (0.006) %
- effect on IL-8 inhibition in fibroblasts relative to the negative control [6]: low but significant effect

Substance: GYRCSKG [MBa7]
- Fibroblast proliferation (% change relative to control) (HNDF fibroblasts; 10 ng/ml peptide): 0.3483%
- Fibroblast proliferation (% change relative to control) (HNDF fibroblasts; 1000 ng/ml peptide): 0.4644%
- Fibroblast proliferation, Representative value from experiments (% change relative to control) (HNDF fibroblasts): 0.4644 p = (0.01) %

Substance: SAYGVSKGLRKRLRKFRNK [MBb51]
- Myofibroblast transition (MFT), aSMA/cell, % change relative to control ([3]; 10 ng/ml peptide): −0.5028%
- Myofibroblast transition (MFT), aSMA/cell, % change relative to control ([3]; 1000 ng/ml peptide): −0.3773%
- MFT, Representative value from experiments (% change relative to control) [3]: −0.5028 p = (0.042) %
- Fibroblast proliferation (% change relative to control) (HNDF fibroblasts; 100 ng/ml peptide): 0.3099%
- Fibroblast proliferation (% change relative to control) (HNDF fibroblasts; 1000 ng/ml peptide): 0.4175%
- Fibroblast proliferation, Representative value from experiments (% change relative to control) (HNDF fibroblasts): 0.4175 p = (0.025) %

— patent publication US20250108088A1, “REGENERATIVE PEPTIDES AND METHODS FOR USE THEREOF” (priority 2023, published 2025)
